Results: publication PMC13053910, “Covalent Protein Inhibitors via Tyrosine and Tryptophan Conjugation with Cyclic Imine Mannich Electrophiles” (Angewandte Chemie (International Ed. in English), 2026)
Residue numbers refer to the chain shown, from its start. Entries after “also recorded” stand apart in the source; their conditions may differ. Read-outs that look alike come from different tables or passages of the source.

Legend:
[1] = Stability in bovine serum-containing cell media (LC/MS); type: in vitro ADME; conditions: 20 µM, DMEM with 15% FBS, 24 h, 37 °C
Protocol: To be suitable for chemical probe and therapeutic applications, the warhead should show good stability. In general, we found the iminolactam warheads to be quite stable. Compound 1 was stable as a solid at room temperature for over 3 months. […] After 24‐h in aqueous buffer, compounds were treated with sodium cyanoborohydride. […] The synthetic strategy of in situ formation of imines by periodate treatment was pursued to avoid concerns of warhead reactivity with the ligand itself to either the peptide backbone or the phenoxyphenyl aryl group. This appears to have been unnecessary, at least for the iminolactam warhead. […] The more reactive ester imine may be forming semi‐stable cyclized products with the amide backbone, which have been observed previously with peptide aldehydes.^[ [51], [52] ^] Due to these issues, we selected compound P1b for further characterization.
Figure S17. Stability of cyclic imine inhibitors to serum-containing cell culture media. […] The protein fraction was then precipitated with addition of 2 volumes of 1:1 EtOH:acetonitrile and overnight incubation at -20 °C. Samples were centrifuged 16,000 g for 30 minutes. Supernatants were filtered through a 0.5 micro spin filter and evaporated with a speed vacuum. The compounds were resuspended in PBS and analzyed by LC/MS. […] Overlaid spectra of UV at 215 nm are shown and are representative of 3 replicates.

CBX8 ChD = molecular target: T1, CBX8 ChD (Homo sapiens, UniProt Q9HC52); assay: Covalent conjugation to CBX8 ChD, UV integration on LC/MS; type: binding
T1 construct: CBX chromodomain constructs (addgene plasmid #25158 (CBX2), and #62514 (CBX8, provided by Cheryl Arrowsmith)); 6His; host or cells: E. coli (BL21 CodonPlus RIL or Rosetta 2)
T1 sequence (Q9HC52 11-69 limits assumed): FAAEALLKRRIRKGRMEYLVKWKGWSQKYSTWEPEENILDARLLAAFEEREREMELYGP
Protocol: Percent covalent conjugation was determined by UV integration on LC/MS after overnight incubation at 10 µM compound and protein at 37 °C.
2.3 In Vitro CBX ChD Labeling with Covalent Inhibitors. 10 µM purified CBX ChD was incubated with imine covalent inhibitors (10 µM) in PBS buffer (pH 7) at 37 °C or R.T. Protein labeling samples were precipitated using MeOH and CHCl3 at the volume ratio of MeOH:CHCl3:sample=3:0.5:1, washed twice using cold MeOH, and air dried. Dried protein pellets were resuspended in aqueous buffer (0.1% formic acid, 300 mM ammonium acetate).
Precipitated samples were analyzed on a C4 reversed-phase column (e.g., 2.1 × 150 mm, 3–5 µm particle size) using a linear gradient of solvent A (0.1% formic acid in water) and solvent B (0.1% formic acid in acetonitrile). Elution was monitored by UV absorbance at 215 nm, and mass spectra were acquired in positive ion mode to confirm the identities of unlabeled and labeled protein species.
Labeling yield (%)=AlabeledAlabeled+Aunlabeled×100
For P2, 10 µM purified CBX ChD was incubated with P2 (10 µM) in PBS buffer (pH 7) at 37 °C or R.T. for 1.5 hours, as well as 12 hours overnight. […] Dried protein pellets were resuspended in aqueous buffer (0.1% formic acid, 300 mM ammonium acetate), and protein labeling were characterized and quantitated by ESI LC-MS.

CBX8 Y39F = molecular target: T2, CBX8 Y39F (Homo sapiens, UniProt Q9HC52, Y39F); assay: Labeling of CBX8 Y39F mutant (gel shift, LC/MS); type: binding; conditions: gel shift and LC/MS, 10 µM each, 37 °C
T2 construct: 6His (N); TEV site (ENLYFQG), read by me from the printed insert DNA (N); host or cells: E. coli (BL21 CodonPlus RIL or Rosetta 2), pET-28a(+)
T2 sequence (Q9HC52 11-69 Y39F limits assumed): T1 sequence (Q9HC52 11-69 limits assumed) with Y29F
Protocol: (§1) Observed masses are shown (expected average mass for CBX8 ChD = 8792 Da). The observed mass difference (913 Da) agrees with the expected mass change of 913 Da. b) Labeled protein was detected by gel shift on 16.5% Tris‐Tricine SDS‐PAGE. […] Gel analysis was conducted on a 2.5% agarose gel in 10 mM sodium borate buffer. […] Assays were conducted using SW2_113 as an FP probe (Figure S20) at 100 nM. All proteins were used at 2 µM in PBS (pH 7), 0.02% Tween 20. Error bars represent SD. […] (μM); no other compound label is printed beside the IC50 lines
(§2) We confirmed protein labeling through a gel shift assay on Tris‐Tricine SDS‐PAGE (Figure 5b). […] To validate labeling of the targeted tyrosine residue (Y39), this amino acid was mutated to phenylalanine. […] We additionally confirmed the labeling site as Y39 by trypsin digest and LC‐MS/MS analysis (Figure S9B).
(§3) For P2, 10 µM purified CBX ChD was incubated with P2 (10 µM) in PBS buffer (pH 7) at 37 °C or R.T. for 1.5 hours, as well as 12 hours overnight. Samples were precipitated using MeOH and CHCl3 at the volume ratio of MeOH:CHCl3:sample=3:0.5:1, washed twice using cold MeOH, and air dried. Dried protein pellets were resuspended in aqueous buffer (0.1% formic acid, 300 mM ammonium acetate), and protein labeling were characterized and quantitated by ESI LC-MS.

CBX2 ChD = molecular target: T3, CBX2 ChD (Homo sapiens, UniProt Q14781); assay: Labeling of CBX2 ChD (gel shift, MS); type: binding; conditions: gel shift or MS
T3 construct: CBX chromodomain constructs (addgene plasmid #25158 (CBX2), and #62514 (CBX8, provided by Cheryl Arrowsmith)); 6His; host or cells: E. coli (BL21 CodonPlus RIL or Rosetta 2)
T3 sequence (Q14781 12-70 limits assumed): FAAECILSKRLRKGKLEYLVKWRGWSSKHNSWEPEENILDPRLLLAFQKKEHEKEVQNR
Protocol: as §1, §2, §3

CBX8 ChD Y39F = molecular target: T4, CBX8 ChD Y39F (Homo sapiens, UniProt Q9HC52, Y39F); assay: Time-dependent fluorescence polarization displacement assay, CBX8 Y39F; type: binding; conditions: for IC50: Figure 5d, CBX8 Y39F 2 µM, probe 100 nM
T4 construct: 6His (N); TEV site (ENLYFQG), read by me from the printed insert DNA (N); host or cells: E. coli (BL21 CodonPlus RIL or Rosetta 2), pET-28a(+)
T4 sequence (Q9HC52 11-69 Y39F limits assumed): T1 sequence (Q9HC52 11-69 limits assumed) with Y29F
Protocol: as §1
2.2 Fluorescence Displacement Assay to Evaluate Time-dependent potency of Imine Covalent Inhibitors to CBX ChD. Fluorescence polarization (FP) was measured by titration of CBX ChDs (CBX8 ChD/CBX8 ChD Y39F/CBX2 ChD) to a fluoresceine-labelled probe as previously reported ^1. Fluorescence displacement assays were performed in black 384-well plates with optical bottoms. Buffer used in FP assays consists of 100 mM Na2HPO4, 150 mM NaCl, 0.02% Tween 20. […] Two-fold dilutions of covalent inhibitors were used, starting with 100 µM as highest peptide concentration to 0.049 µM as the lowest. Four replicates were tested at each concentration. Fluorescence anisotropy was read at different time points. Raw data were analyzed using GraphPad Prism 7 following a “one site-Fit logIC50” competition model with any outliers (95 % confidence interval) being excluded.
Time-dependent fluorescence displacement assay Fluorescence polarization (FP) was measured by titration of CBX ChDs (CBX8 ChD/CBX8 ChD Y39F/CBX2 ChD) to a fluorescein-labelled probe as previously reported.^8 Fluorescence displacement assays were performed in black 384-well plates with optical bottoms. Buffer used in FP assays consists of 100 mM Na2HPO4, 150 mM NaCl, 0.02% Tween 20. […] Fluorescence anisotropy was read at different time points. […] Raw data were analyzed using GraphPad Prism 7 following a “one site-Fit logIC50” competition model with any outliers (95 % confidence interval) being excluded.

% conj. to CBX8 at 37 °C Overnight 10 μM each (CBX8 ChD; 10 µM compound and protein, 37 °C, overnight): ~90%
effect of GSH on CBX8 ChD labeling yield (CBX8 ChD; presence of 10 mM GSH): no effect on yield
labeling of mutant CBX8 Y39F (CBX8 Y39F): fails to label
labeling of CBX2 ChD (CBX2 ChD): no labeled protein was detected
change in IC50 upon extended incubation (CBX8 ChD Y39F; CBX8 Y39F mutant): no change in IC50
IC50 (CBX8 ChD Y39F; read-out: IC50 at time 0): 12 µM
IC50 (CBX8 ChD Y39F; IC50 at 20 h): 11 µM
Structure (SMILES): CC[C@H](C)[C@H](NC(=O)[C@@H](NC(=O)c1ccc(Oc2ccccc2)cc1)C1CCCC1)C(=O)N[C@@H](CCCCN(CC)CCCCCCN1CCN=CC1=O)C(=O)N[C@@H](CO)C(N)=O [P1b]
stability in bovine serum‐containing cell media [1]: no degradation or loss to the protein fraction; also recorded: minimal loss of compounds to the precipitated protein fraction or degradation
